Results published in patent US20140017223A1, “Pharmaceutical Compositions Comprising A Pancreatic Enzyme Preparation With Viral Infectivity Reduced Below A Significant Level And Methods Of Preparing And Using The Same” (Aptalis Pharma Canada Inc., priority 2010, published 2014).

What was measured:
PPV = assay: Inactivation of spiked PPV in pancrelipase (PEP) by BPL, PPV titered by dilution method (Example 1); format: cell-based, porcine parvovirus (PPV); details: 48 h, 20° C.; for Detected PPV Titer: 0*=below detection limit of 10^3 FFID50/g
Experimental: For example, two preparations can be tested for PPV or another virus on one 96-well plate, with the positive controls incubated on another parallel plate. For PPV the samples can be serially diluted (for example, 1:4 in each step for a total of 8 dilutions) in cell culture medium prior to application and incubated with cell cultures for at least 5 days at 37° C. in 5% CO2. After sample removal and the fixation of the cells by paraformaldehyde, the presence of PPV (or other) virus infection is monitored in each well by an anti-PPV antibody using a standard immunofluorescent assay. The number of wells that contain positively stained cells are recorded in a table. Fluorescence Focus Infectious Doses (FFID50) are calculated according to the Karber formula: […]
All data are recalculated for 1-gram dry PEP, e.g., pancrelipase, sample after the consideration of processed sample volumes and dilutions. In certain embodiments, the assay is repeated several times using six parallel wells to quantify the level of infectious viruses.
Pancrelipase powders from 2 different lots were each dissolved in 100 mM Tris, pH=8.3, at a concentration of 100 mg/ml. Two ml non-purified PPV viral stock (prepared using standard protocols (Arella et al., Physicichemical properties, production, and purification of parvoviruses. 1990, In Tijssen, P. (ed.), CRC handbook of parvoviruses. Boca Raton, Fla.: CRC Press, 11-30)) were added to 38 ml of the pancrelipase solution. The virus was mixed with the PEP using slow shaking at room temperature for one day. Aliquots were taken from the PPV-spiked pancrelipase stocks and each was incubated with different concentrations of BPL (available from Sigma-Aldrich, St. Louis, Mo.) (except the control) for 48 hours at room temperature (20° C.). The level of viral inactivation was measured by the titration of PPV infectivity using serial dilutions of 1,000 times or more since the titer of spiked virus was high. Determination of the FFID50 was performed using the fluorescence assay as described in the PPV FFID-infectivity assay of U.S. Patent Publication No. 2009/0226414.

EMCV = assay: Inactivation of spiked EMCV in pancrelipase by BPL, TCID50 titration on VERO cells (Example 2); format: cell-based, porcine encephalomyocarditis virus (EMCV); details: 48 h, 20° C.; for Detected EMCV titer: 0*=below detection limit of 10^3 TCID50/g
Experimental: Four different lots of pancrelipase powders were dissolved in 100 mM Tris, pH=8.3, at a concentration of 100 mg/ml. EMCV virus stock (prepared by Meng X J, Paul P S, Vaughn E M, Zimmerman J J. Development of a radiolabeled nucleic acid probe for the detection of encephalomyocarditis virus of swine. J Vet Diagn Invest. 1993 5:254-8) was mixed with the pancrelipase using slow shaking at room temperature for one day such that the final concentration of pancrelipase was 100 mg/ml. Aliquots were taken from the EMCV-spiked pancrelipase stocks and each was incubated with different concentrations of BPL (available from Sigma-Aldrich, St. Louis, Mo.) (except the control) for 48 hours at room temperature (20° C.). The level of inactivation was measured by the titration of EMCV infectivity on VERO cells using serial dilutions and determining the TCID50 as described in Hierholzer, J. C., Killington, R. A., 1996. Virus isolation and quantitation. In: Mahy, B. W. J., Kangro, H. O. (Eds.), Virology methods manual. Academic Press, London, pp. 25-46.

protease = assay: Protease activity of pancrelipase after BPL treatment, freezing and lyophilization (USP 31 method); format: biochemical; details: for Loss of Protease Activity: pancrelipase, freezing, lyophilization, precision 5-10%
Experimental: Enzymatic activity for the enzymes of a PEP (e.g., proteases, lipases, and amylases) can be determined, for example, by using the United States Pharmacopeia (USP) monographed methods (The United States Pharmacopeia and the National Formulary (USP 31/NF 26). 2008. Rockville (MD): United States Pharmacopeial Convention, Inc.).
The samples c-d from all the experiments were tested for lipase, protease, and amylase enzymatic activity using USP 31 monographed methods. See Example 11 and Table 11.
Table 11 presents the lipase, protease, and amylase activity for aliquots of the pancrelipase after BPL treatment for 30 min at 25° C. followed by freezing and lyophilization (same treatment as for samples in Example 10).

With `O=C1CCO1` [BPL, Beta-propiolactone] the “PPV Titer reduction” value (PPV; PEP #1, 0.1% (v/v) BPL) was 2.37 × 10^3 FFID50/g, the “Detected PPV Titer” value (PPV; PEP #1, 0.1% (v/v) BPL) was 4.22 × 10^4 FFID50/g and the “PPV Titer reduction” value (PPV; PEP #1, 0.2% (v/v) BPL) was >10^5 FFID50/g. For the same compound, the “Detected PPV Titer” value (PPV; PEP #1, 0.2% (v/v) BPL) was < 0* FFID50/g, the “PPV Titer reduction” value (PPV; PEP #1, 0.4% (v/v) BPL) was >10^5 FFID50/g and the “Detected PPV Titer” value (PPV; PEP #1, 0.4% (v/v) BPL) was < 0* FFID50/g. The “PPV Titer reduction” value (PPV; PEP #1, 0.8% (v/v) BPL) was >10^5 FFID50/g, the “Detected PPV Titer” value (PPV; PEP #1, 0.8% (v/v) BPL) was < 0* FFID50/g and the “PPV Titer reduction” value (PPV; PEP #2, 0.1% (v/v) BPL) was 2.37 × 10^3 FFID50/g. The “Detected PPV Titer” value (PPV; PEP #2, 0.1% (v/v) BPL) was 4.22 × 10^4 FFID50/g, the “PPV Titer reduction” value (PPV; PEP #2, 0.2% (v/v) BPL) was >10^5 FFID50/g and the “Detected PPV Titer” value (PPV; PEP #2, 0.2% (v/v) BPL) was < 0* FFID50/g. The “PPV Titer reduction” value (PPV; PEP #2, 0.4% (v/v) BPL) was >10^5 FFID50/g, the “Detected PPV Titer” value (PPV; PEP #2, 0.4% (v/v) BPL) was < 0* FFID50/g and the “PPV Titer reduction” value (PPV; PEP #2, 0.8% (v/v) BPL) was >10^5 FFID50/g. For the same compound, the “Detected PPV Titer” value (PPV; PEP #2, 0.8% (v/v) BPL) was < 0* FFID50/g, the “PPV Titer reduction” value (PPV; PEP #3, 0.1% (v/v) BPL) was 4.22 × 10^3 FFID50/g and the “Detected PPV Titer” value (PPV; PEP #3, 0.1% (v/v) BPL) was 5.62 × 10^4 FFID50/g. The “PPV Titer reduction” value (PPV; PEP #3, 0.2% (v/v) BPL) was >10^5 FFID50/g, the “Detected PPV Titer” value (PPV; PEP #3, 0.2% (v/v) BPL) was < 0* FFID50/g and the “PPV Titer reduction” value (PPV; PEP #3, 0.4% (v/v) BPL) was >10^5 FFID50/g. The “Detected PPV Titer” value (PPV; PEP #3, 0.4% (v/v) BPL) was < 0* FFID50/g, the “PPV Titer reduction” value (PPV; PEP #3, 0.8% (v/v) BPL) was >10^5 FFID50/g and the “Detected PPV Titer” value (PPV; PEP #3, 0.8% (v/v) BPL) was < 0* FFID50/g. The “PPV Titer reduction” value (PPV; PEP #4, 0.1% (v/v) BPL) was 1.33 × 10^8 FFID50/g, the “Detected PPV Titer” value (PPV; PEP #4, 0.1% (v/v) BPL) was < 0* FFID50/g and the “PPV Titer reduction” value (PPV; PEP #4, 0.2% (v/v) BPL) was >10^5 FFID50/g. The “Detected PPV Titer” value (PPV; PEP #4, 0.2% (v/v) BPL) was < 0* FFID50/g, the “PPV Titer reduction” value (PPV; PEP #4, 0.4% (v/v) BPL) was >10^5 FFID50/g and the “Detected PPV Titer” value (PPV; PEP #4, 0.4% (v/v) BPL) was < 0* FFID50/g. For the same compound, the “PPV Titer reduction” value (PPV; PEP #4, 0.8% (v/v) BPL) was >10^5 FFID50/g, the “Detected PPV Titer” value (PPV; PEP #4, 0.8% (v/v) BPL) was < 0* FFID50/g and the “EMCV Titer reduction” value (EMCV; PEP #1, 0.1% (v/v) BPL) was 1.33 × 10^2 TCID50/g. The “Detected EMCV titer” value (EMCV; PEP #1, 0.1% (v/v) BPL) was 4.22 × 10^5 TCID50/g, the “EMCV Titer reduction” value (EMCV; PEP #1, 0.2% (v/v) BPL) was >10^5 TCID50/g and the “Detected EMCV titer” value (EMCV; PEP #1, 0.2% (v/v) BPL) was < 0* TCID50/g. For the same compound, the “EMCV Titer reduction” value (EMCV; PEP #1, 0.4% (v/v) BPL) was >10^5 TCID50/g, the “Detected EMCV titer” value (EMCV; PEP #1, 0.4% (v/v) BPL) was < 0* TCID50/g and the “EMCV Titer reduction” value (EMCV; PEP #1, 0.8% (v/v) BPL) was >10^5 TCID50/g. The “Detected EMCV titer” value (EMCV; PEP #1, 0.8% (v/v) BPL) was < 0* TCID50/g, the “EMCV Titer reduction” value (EMCV; PEP #2, 0.1% (v/v) BPL) was 1.78 × 10^2 TCID50/g and the “Detected EMCV titer” value (EMCV; PEP #2, 0.1% (v/v) BPL) was 3.16 × 10^5 TCID50/g. The “EMCV Titer reduction” value (EMCV; PEP #2, 0.2% (v/v) BPL) was >10^5 TCID50/g, the “Detected EMCV titer” value (EMCV; PEP #2, 0.2% (v/v) BPL) was < 0* TCID50/g and the “EMCV Titer reduction” value (EMCV; PEP #2, 0.4% (v/v) BPL) was >10^5 TCID50/g. The “Detected EMCV titer” value (EMCV; PEP #2, 0.4% (v/v) BPL) was < 0* TCID50/g, the “EMCV Titer reduction” value (EMCV; PEP #2, 0.8% (v/v) BPL) was >10^5 TCID50/g and the “Detected EMCV titer” value (EMCV; PEP #2, 0.8% (v/v) BPL) was < 0* TCID50/g. For the same compound, the “EMCV Titer reduction” value (EMCV; PEP #3, 0.1% (v/v) BPL) was >10^5 TCID50/g, the “Detected EMCV titer” value (EMCV; PEP #3, 0.1% (v/v) BPL) was < 0* TCID50/g and the “EMCV Titer reduction” value (EMCV; PEP #3, 0.2% (v/v) BPL) was >10^5 TCID50/g. The “Detected EMCV titer” value (EMCV; PEP #3, 0.2% (v/v) BPL) was < 0* TCID50/g, the “EMCV Titer reduction” value (EMCV; PEP #3, 0.4% (v/v) BPL) was >10^5 TCID50/g and the “Detected EMCV titer” value (EMCV; PEP #3, 0.4% (v/v) BPL) was < 0* TCID50/g. For the same compound, the “EMCV Titer reduction” value (EMCV; PEP #3, 0.8% (v/v) BPL) was >10^5 TCID50/g, the “Detected EMCV titer” value (EMCV; PEP #3, 0.8% (v/v) BPL) was < 0* TCID50/g and the “EMCV Titer reduction” value (EMCV; PEP #4, 0.1% (v/v) BPL) was 1.33 × 10^3 TCID50/g. The “Detected EMCV titer” value (EMCV; PEP #4, 0.1% (v/v) BPL) was 7.50 × 10^4 TCID50/g, the “EMCV Titer reduction” value (EMCV; PEP #4, 0.2% (v/v) BPL) was >10^5 TCID50/g and the “Detected EMCV titer” value (EMCV; PEP #4, 0.2% (v/v) BPL) was < 0* TCID50/g. For the same compound, the “EMCV Titer reduction” value (EMCV; PEP #4, 0.4% (v/v) BPL) was >10^5 TCID50/g, the “Detected EMCV titer” value (EMCV; PEP #4, 0.4% (v/v) BPL) was < 0* TCID50/g and the “EMCV Titer reduction” value (EMCV; PEP #4, 0.8% (v/v) BPL) was >10^5 TCID50/g. The “Detected EMCV titer” value (EMCV; PEP #4, 0.8% (v/v) BPL) was < 0* TCID50/g, the Protease activity maintained (protease; lyophilized samples treated with 0.4% BPL and 0.8% BPL) was “maintained the majority” and the “Loss of Protease Activity” value (protease; 0.4% BPL 30 min 25° C.) was 0%. For the same compound, the “Loss of Protease Activity” value (protease; 0.8% BPL 30 min 25° C.) was 0%.
